In US20230357271A1, “MACROCYCLIC COMPOUND” (Asahi Kasei Pharma Corporation, priority 2020, published 2023):

What was measured:
[1] = target: human IRAK-4 (Homo sapiens (Human), UniProt Q9NWZ3); assay: Measurement of human IRAK-4 inhibitory activity (TR-FRET); format: biochemical; details: 1 nM IRAK-4, 0.5 µM peptide substrate, 10 µM ATP, 23° C., 30 minutes
Protocol: For the measurement of the activity of the human IRAK-4 (Invitrogen, Cat. PV3362), phosphorylation of the IRAK-4 peptide substrate (biotin-KKKKRFSFKKSFKC) by the enzyme in the presence of 10 µM ATP (Sigma-Aldrich, Cat. A7699) was measured by the TR-FRET method. The enzymatic reaction was performed in a reaction buffer containing 50 mM HEPES (pH 7.2), 1 mM DTT, 0.1 mM Na3VO4, 5 mM MgCl2, 1 mM MnCl2, and 0.1% bovine serum albumin. For the measurement of the IRAK-4 inhibitory activity, a test compound was added to the reaction buffer containing 1 nM IRAK-4, 0.5 µM peptide substrate, and 10 µM ATP, and the mixture was incubated at 23° C. for 30 minutes. Then, a detection solution containing an antibody labeled with europium cryptate (0.3 µg/mL, the antibody was prepared by using the IRAK-4 peptide substrate as the antigen), streptavidin-XL665 (2 µg/mL, CisBio, Cat. 610SAXLB), 50 mM HEPES (pH 7.2), 0.1% BSA, 120 mM KF, and 66.7 mM EDTA (all the concentrations of the reagents are final concentrations) was added to terminate the reaction, and then the mixture was further incubated at 23° C. for 60 minutes. Fluorescence intensity was measured at wavelengths of 665 nm and 620 nm with a microplate reader, and the enzymatic activity was calculated as the ratio of fluorescence intensities at 665 nm and 620 nm (665 nm/620 nm).
When the measurement was performed in multiplicate, the results are represented with average values.

[2] = tested on: human acute monocytic leukemia cell strain THP-1; assay: LPS-stimulated TNFα production inhibition test using THP-1 cells; format: cell-based; details: LPS 2.5 ng/mL, TNFα by HTRF
Protocol: By the THP-1 assay, influence of a test compound on the TNFα production induced by LPS stimulation can be evaluated. The THP-1 cells (ATCC, Cat. TIB-202) were inoculated on a 96-well plate at a density of 1 × 10^5 cells/160 µL/well, a test compound was added in a volume of 20 µL, and the plate was incubated at 37° C. for 1 hour in a 5% CO2 incubator. Then, LPS in a volume of 20 µL (final concentration 2.5 ng/mL, Sigma, Cat. L2630) was added, and the plate was further incubated for 4 hours. After the incubation, the plate was centrifuged, and 100 µL of the supernatant was taken from each well, and used for evaluation of the amount of TNFα using HTRF (Cisbio, Cat. 62TNFPEB). In the measurement of the amount of TNFα, the supernatant was diluted twice with the medium, and then added to wells of a 384-well plate in a volume of 10 µL, then anti-TNFα-cryptate (5 µL), and anti-TNFα-XL665 (5 µL) were added, and the plate was left standing overnight. The fluorescence intensity ratio for the wavelengths of 620 and 665 nm (620 nm/665 nm) was measured with a microplate reader, and the amount of TNFα in the supernatant was calculated by using a calibration curve. The TNFα production suppression ratio observed with no addition of LPS was defined to be 100%, the TNFα production suppression ratio observed with no addition of the test compound was defined to be 0%, and IC50 of the test compound was calculated by using the 4-parameter logistic model of the data analysis software XLfit (ID Business Solutions Ltd.).
When the measurement was performed in multiplicate, the results are represented with average values. The values were rounded to the fourth decimal place.

human IRAK-4, sequence (Q9NWZ3 whole entry): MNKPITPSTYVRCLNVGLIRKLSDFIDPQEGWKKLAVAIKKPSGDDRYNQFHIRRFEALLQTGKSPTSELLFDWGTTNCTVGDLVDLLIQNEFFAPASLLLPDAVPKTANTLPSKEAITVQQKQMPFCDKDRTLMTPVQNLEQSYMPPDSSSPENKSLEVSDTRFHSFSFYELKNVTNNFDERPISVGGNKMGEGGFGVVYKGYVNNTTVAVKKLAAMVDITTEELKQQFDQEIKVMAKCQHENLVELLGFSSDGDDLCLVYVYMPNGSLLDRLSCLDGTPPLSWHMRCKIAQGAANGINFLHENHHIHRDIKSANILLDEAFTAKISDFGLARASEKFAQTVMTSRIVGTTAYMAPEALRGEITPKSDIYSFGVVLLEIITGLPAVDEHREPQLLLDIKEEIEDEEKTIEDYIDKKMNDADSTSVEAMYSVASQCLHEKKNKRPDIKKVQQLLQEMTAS

| IC50 [1] [nM] | IC50 ([2]; Homo sapiens, THP-1, 4 h) [µM] | IC50 ([2]; 4 hours) [µM] | Structure (SMILES) |
| --- | --- | --- | --- |
| 1.76 | 0.066 | – | Cc1ncc(-c2ccc3ncc4cc3c2/C=C/CCNC(=O)[C@@H]2CC(CC(C)N2C)N4)cn1 (stereo in doubt) [a-02-17, (3^2S,E)-3^1,3^6-Dimethyl-1^6-(2-methylpyrimidin-S-yl)-2,5-diaza-1 (3,5)-qunolina-3(4,2)-piperidinacyclononaphan-8-en-4-one] |
| 1.63 | 0.028 | – | CN1CC[C@H]2C[C@H]1C(=O)NCCCOc1c(-c3ccns3)ccc3ncc(nc13)N2 [a-01-01] |
| 0.89 | 0.044 | – | CN1CC[C@H]2C[C@H]1C(=O)NCC1(CC1)COc1c(-c3cnc(CO)s3)ccc3ncc(nc13)N2 [a-01-02] |
| 2.11 | 0.045 | – | CN1CC[C@H]2C[C@H]1C(=O)NCC1(CC1)COc1c(-c3cncnc3)ccc3ncc(nc13)N2 [a-01-03] |
| 4.24 | 0.048 | – | CCCOCc1ncc(-c2ccc3ncc4nc3c2OCC2(CC2)CNC(=O)[C@@H]2C[C@H](CCN2C)N4)cn1 [a-01-04] |
| 1.37 | – | 0.048 | CCCOCc1ncc(-c2ccc3ncc4nc3c2OCC(F)CNC(=O)[C@@H]2C[C@H](CCN2C)N4)cn1 (stereo partly drawn) [a-01-05] |
| 2.53 | 0.05 | – | CCCOCc1ncc(-c2ccc3ncc4nc3c2OCC(F)COC(=O)[C@@H]2C[C@H](CCN2C)N4)cn1 (stereo partly drawn) [a-01-06] |
| 1.49 | 0.057 | – | CCCOCc1ncc(-c2ccc3ncc4nc3c2OCCCNC(=O)[C@@H]2C[C@H](CCN2C)N4)cn1 [a-01-07, (3^2S,3^4S)-3^1-Methyl-1^7-(2-(propoxymethyl)pyrimidin-5-yl)-9-oxa-2,5-diaza-1(2,8)-quinoxalina-3(4,2)-piperidinacyclononaphan-4-one] |
| 1.47 | 0.063 | – | CN1CC[C@H]2C[C@H]1C(=O)NCC(F)(F)COc1c(-c3cncnc3)ccc3ncc(nc13)N2 [a-01-08] |
| 1.28 | 0.064 | – | CN1CC[C@H]2C[C@H]1C(=O)NCCCOc1c(-c3cncnc3)ccc3ncc(nc13)N2 [a-01-09] |
| 43.4 | 0.068 | – | CCCOCc1ncc(-c2ccc3ncc4nc3c2OCCCC2CCCN2C(=O)[C@@H]2C[C@H](CCN2C)N4)cn1 (stereo partly drawn) [a-01-10] |
| 0.79 | 0.073 | – | CN1CC[C@H]2C[C@H]1C(=O)NCCCOc1c(-c3cnc(CO)s3)ccc3ncc(nc13)N2 [a-01-11] |
| 1.75 | 0.075 | – | CCCOCc1ncc(-c2ccc3ncc4nc3c2OCCC(C)CNC(=O)[C@@H]2C[C@H](CCN2C)N4)cn1 (stereo partly drawn) [a-01-12] |
| 2.95 | 0.076 | – | CN1CC[C@H]2C[C@H]1C(=O)NCCCOc1c(-c3cnc(COC4CCC4)nc3)ccc3ncc(nc13)N2 [a-01-13] |
| 1.73 | 0.08 | – | CN1CC[C@H]2C[C@H]1C(=O)NCCCOc1c(-c3cnsc3)ccc3ncc(nc13)N2 [a-01-14] |
| 2.77 | 0.081 | – | CCCOCc1ncc(-c2ccc3ncc4nc3c2OCCCOC(=O)[C@@H]2C[C@H](CCN2C)N4)cn1 [a-01-15] |
| 1.25 | 0.092 | – | CCN1CC[C@H]2C[C@H]1C(=O)NCCCOc1c(-c3cnc(CO)s3)ccc3ncc(nc13)N2 [a-01-16] |
| 3.04 | 0.099 | – | CCC(O)COCc1ncc(-c2ccc3ncc4nc3c2OCCCNC(=O)[C@@H]2C[C@H](CCN2C)N4)cn1 (stereo partly drawn) [a-01-17] |
| 1.84 | 0.104 | – | CN1CCCOc2c(-c3cnc(CO)s3)ccc3ncc(nc23)N[C@H]2CCN(C)[C@@H](C2)C1=O [a-01-18] |
| 1.6 | – | 0.113 | Cc1ncc(-c2ccc3ncc4nc3c2OCC(F)CNC(=O)[C@@H]2C[C@H](CCN2C)N4)cn1 (stereo partly drawn) [a-01-19] |
| 1.15 | 0.113 | – | Cc1ncc(-c2ccc3ncc4nc3c2OCC(F)COC(=O)[C@@H]2C[C@H](CCN2C)N4)cn1 (stereo partly drawn) [a-01-20] |
| 2.29 | 0.117 | – | CN1CC[C@H]2C[C@H]1C(=O)NCCCOc1c(-c3cnc(COCC4CC4)nc3)ccc3ncc(nc13)N2 [a-01-21] |
| 0.89 | 0.118 | – | CN1CC[C@H]2C[C@H]1C(=O)NCC(F)(F)COc1c(-c3cnc(CO)s3)ccc3ncc(nc13)N2 [a-01-22] |

| IC50 [1] [nM] | IC50 ([2]; Homo sapiens, THP-1, 4 h) [µM] | IC50 ([2]; 4 hours) [µM] | Structure (SMILES) |
| --- | --- | --- | --- |
| 1.21 | 0.124 | – | CCCOCc1ncc(-c2ccc3ncc4nc3c2OCC(F)(F)CNC(=O)[C@@H]2C[C@H](CCN2C)N4)cn1 [a-01-23] |
| 2.48 | 0.14 | – | Cc1ncc(-c2ccc3ncc4nc3c2OCCCNC(=O)[C@@H]2C[C@H](CCN2C)N4)cn1 [a-01-24] |
| 4.43 | 0.141 | – | Cc1ncc(-c2ccc3ncc4nc3c2OCC2(CC2)CNC(=O)[C@@H]2C[C@H](CCN2C)N4)cn1 [a-01-25] |
| 1.41 | – | 0.142 | CCCOCc1ncc(-c2ccc3ncc4nc3c2OCC(F)CNC(=O)[C@@H]2C[C@H](CCN2C)N4)cn1 (stereo partly drawn) [a-01-26] |
| 4.25 | 0.145 | – | CCCOCc1ncc(-c2ccc3ncc4nc3c2OCCCCCNC(=O)[C@@H]2C[C@H](CCN2C)N4)cn1 [a-01-27] |
| 4.04 | 0.149 | – | Cc1ncc(-c2ccc3ncc4nc3c2OCC(F)(F)CNC(=O)[C@@H]2C[C@H](CCN2C)N4)cn1 [a-01-28] |
| 4.14 | 0.15 | – | CN1CC[C@H]2C[C@H]1C(=O)NCC1(CCC1)COc1c(-c3cncnc3)ccc3ncc(nc13)N2 [a-01-29] |
| 2.8 | 0.162 | – | CN1CC[C@H]2C[C@H]1C(=O)NCCCCOc1c(-c3cncnc3)ccc3ncc(nc13)N2 [a-01-30] |
| 3.42 | 0.163 | – | CCCOCc1ncc(-c2ccc3ncc4nc3c2OCCC(F)CNC(=O)[C@@H]2C[C@H](CCN2C)N4)cn1 (stereo partly drawn) [a-01-31] |
| 1.59 | 0.165 | – | CN1CC[C@H]2C[C@H]1C(=O)NCCCOc1c(-c3cnc(CO)nc3)ccc3ncc(nc13)N2 [a-01-32] |
| 4.79 | 0.17 | – | Cc1ncc(-c2ccc3ncc4nc3c2OCC2(CC2)COC(=O)[C@@H]2C[C@H](CCN2C)N4)cn1 [a-01-33] |
| 4.19 | 0.177 | – | CN1CCCOc2c(-c3cncnc3)ccc3ncc(nc23)N[C@H]2CCN(C)[C@@H](C2)C1=O [a-01-34] |
| 2.84 | 0.178 | – | CCCOCc1ncc(-c2ccc3ncc4nc3c2OCCCNC(=O)[C@@H]2C[C@H](CCN2CC)N4)cn1 [a-01-35] |
| 8.86 | 0.182 | – | CC1CNC(=O)[C@@H]2C[C@H](CCN2C)Nc2cnc3ccc(-c4cncnc4)c(c3n2)OC1 (stereo partly drawn) [a-01-36] |
| 4.52 | 0.189 | – | CCCOCc1ncc(-c2ccc3ncc4nc3c2OCCC(CC)CNC(=O)[C@@H]2C[C@H](CCN2C)N4)cn1 (stereo partly drawn) [a-01-37] |
| 6.73 | 0.199 | – | CCCOCc1ncc(-c2ccc3ncc4nc3c2OCCCN(C)C(=O)[C@@H]2C[C@H](CCN2C)N4)cn1 [a-01-38] |
| 5.12 | 0.204 | – | CN1CC[C@H]2C[C@H]1C(=O)NCCCCCOc1c(-c3cncnc3)ccc3ncc(nc13)N2 [a-01-39] |
| 14.8 | 0.253 | – | CN1CC[C@H]2C[C@H]1C(=O)NCC(C)(C)COc1c(-c3cncnc3)ccc3ncc(nc13)N2 [a-01-40] |
| 10 | – | 0.293 | Cc1ncc(-c2ccc3ncc4nc3c2OCC(F)CNC(=O)[C@@H]2C[C@H](CCN2C)N4)cn1 (stereo partly drawn) [a-01-41] |
| – | 0.237 | – | CCCOCc1ncc(-c2ccc3ncc4nc3c2OCCC(C)NC(=O)[C@@H]2C[C@H](CCN2C)N4)cn1 (stereo partly drawn) [a-01-43] |
| – | 0.324 | – | Cc1ncc(-c2ccc3ncc4cc3c2CCCCNC(=O)[C@@H]2C[C@H](CC(C)N2C)N4)cn1 (stereo partly drawn) [a-02-22] |
| – | 0.5 | – | CCCOCc1ncc(-c2ccc3ncc4cc3c2OCCCNC(=O)[C@@H]2C[C@H](CCN2C)O4)cn1 [a-02-25, (3^2S,3^4S)-3^1-Methyl-1^6-(2-(propoxymethyl)pyrimidin-5-yl)-2,9-dioxa-5-aza-1 (3,5)-qunolina-3 (4,2)-piperidinacyclononaphan-4-one] |
